Experimental data taken from US5430169A, “Method for preparation of sphingoid bases” (The United States of America represented by the Department …, priority 1994, dated 1995).
Entries after “also recorded” stand apart in the source; their conditions may differ.

Key:
Swiss 3T3 fibroblasts = conditions: in words; cited from earlier work
[1] = system: permeabilized smooth muscle cells; conditions: IP3-sensitive and IP3-insensitive pools; cited from earlier work
S-1-P aldolase [2] = assay: time dependent (irreversible) inhibition of S-1-P aldolase; assay type: biochemical; conditions: mode of inhibition, in words
rat liver aldolase = molecular target: T1, rat liver aldolase (Rattus norvegicus, UniProt Q8CHN6); assay: in vitro biological evaluation: inhibition of rat liver aldolase; assay type: biochemical; conditions: read-out: IC50, inhibited rat liver aldolase
T1 construct: from tissue; host or cells: rat liver
T1 sequence (Q8CHN6 1-568): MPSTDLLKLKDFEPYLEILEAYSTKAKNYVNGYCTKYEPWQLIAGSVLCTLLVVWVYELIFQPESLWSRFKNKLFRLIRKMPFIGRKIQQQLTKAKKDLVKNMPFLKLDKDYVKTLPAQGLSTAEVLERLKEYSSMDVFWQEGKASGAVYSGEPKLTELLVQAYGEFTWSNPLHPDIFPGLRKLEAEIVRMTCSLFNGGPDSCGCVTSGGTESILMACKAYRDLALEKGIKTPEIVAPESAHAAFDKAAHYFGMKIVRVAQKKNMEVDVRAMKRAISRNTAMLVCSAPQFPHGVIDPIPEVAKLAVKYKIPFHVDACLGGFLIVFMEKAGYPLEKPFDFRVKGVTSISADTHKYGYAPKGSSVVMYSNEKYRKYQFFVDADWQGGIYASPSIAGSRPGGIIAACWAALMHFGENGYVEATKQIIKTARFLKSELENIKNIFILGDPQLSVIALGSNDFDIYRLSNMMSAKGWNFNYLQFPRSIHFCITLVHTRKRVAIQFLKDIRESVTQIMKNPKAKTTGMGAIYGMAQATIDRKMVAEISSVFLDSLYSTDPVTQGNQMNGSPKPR

protein kinase C = conditions: in words; cited from earlier work
S-1-P aldolase [3] = conditions: mode of inhibition, in words; cited from earlier work
permeabilized cells = conditions: cellular level / environments with other cellular components, e.g.; cited from earlier work

Row | Structure (SMILES) | time dependent (irreversible) inhibitor of S-1-P aldolase (S-1-P aldolase [2]) | IC50 (rat liver aldolase) [µM] | further results
1 | CCCCCCCCCCCCC/C=C/[C@@H](O)[C@@H](N)COP(=O)(O)O [Example S-1-P, sphingosine-1-phosphate] | – | – | mitogenic effect in Swiss 3T3 fibroblasts (Swiss 3T3 fibroblasts): very potent mitogen; translocation of calcium from intracellular stores [1]: rapid translocation of calcium from intracellular stores
2 | CCCCCCCCCCCCC/C=C/[C@@H](O)[C@@H](N)CO [sphingosine] | – | – | inhibition of protein kinase C (protein kinase C): potent and specific inhibitor
3 | CCCCCCCCCCCCCCCC(O)C(N)CP(=O)(O)O (stereo not shown) [DS-1-P, dihydrosphingosine-1-phosphonate] | – | – | inhibition of the S-1-P aldolase reaction (S-1-P aldolase [3]): competitive inhibition; toxicity (permeabilized cells): highly toxic; also recorded: well known toxin

More lines, main results first:

Row | time dependent (irreversible) inhibitor of S-1-P aldolase (S-1-P aldolase [2]) | IC50 (rat liver aldolase) [µM] | Structure (SMILES) | further results
4 | time dependent (irreversible) inhibitor | 1.1 | C=CC(N)COP(=O)(O)O (stereo not shown) [Example 5, 2-vinyl ethanolamine-O-phosphate] | –
5 | time dependent (irreversible) inhibitor | 2.4 | C=CC(N)(COP(=O)(O)O)C(O)CCCCCCCCCCCCCCC (stereo not shown) [Example 4, 2-vinyl dihydrosphingosine-1-phosphate] | –
6 | – | 0.8 | CCCCCCCCCCCCCCCC(O)C(COP(=O)(O)O)NN (stereo not shown) [Example 3, 2-hydrazino deamino dihydrosphingosine-1-phosphate] | –
